*1 amine or outer side, *2 acyl side, *3 side chain or, on linkers, in order; H or OH if unused. Where a SMILES comes first, the peptide text is derived from it. Bridges are numbered along the chain shown (N, C = ends). Roman numbers before positions name the chains, in order. [ ]: non-standard residue; d: D form. Actinocin(1to9) = Cc1c2oc3c(C)ccc(C(=O)[*:2])c3nc-2c(C(=O)[*:1])c(N)c1=O; NMeV = CN[C@H](C(=O)O)C(C)C; Sar = CNCC(=O)O

Common to all, as to assay type: functional
What all share (conditions): read-out: ED50 (the source's name)

Test [1] can be described thus: Cytotoxicity against human […] cells by tetrazolium salt-based colorimetric assay.
Another test has as its system HCT-8. Nature of the test: Cytotoxicity against human HCT8 cells by tetrazolium salt-based colorimetric assay.
The test system of another test is TE-671. Nature of the test: Cytotoxicity against human TE671 cells by tetrazolium salt-based colorimetric assay.
A further test has as its system A549. Nature of the test: Cytotoxicity against human A549 cells by tetrazolium salt-based colorimetric assay.
The next test concerns KB. Nature of the test: Cytotoxicity against human KB cells by tetrazolium salt-based colorimetric assay.

As to `O=C(O[C@H]1[C@H](O)C[C@](O)(C(=O)O)C[C@H]1OC(=O)c1cc(O)c(O)c(O)c1)c1cc(O)c(O)c(O)c1`, the EC50 in test [1] was 0.53 mg/L; in the test with HCT-8, above 10 mg/L; in the test on TE-671, above 10 mg/L; in the test on A549, above 10 mg/L; in the test on KB, above 10 mg/L.
With `O=C(O)C[C@H]1C(=O)O[C@H]2[C@H](OC(=O)c3cc(O)c(O)c(O)c3)[C@@H](OC(=O)c3cc(O)c(O)c4c3[C@H]1[C@H](O)C(=O)O4)[C@H](OC(=O)c1cc(O)c(O)c(O)c1)O[C@@H]2COC(=O)c1cc(O)c(O)c(O)c1` [CHEBULINIC ACID], the EC50 (in test [1]; in the test with HCT-8; in the test on TE-671; with A549; in the test with KB) was above 10 mg/L in each case.
On to `O=C1OC[C@H]2OC(=O)c3cc(O)c(O)c(O)c3-c3c(O)c(O)c(O)c4c3C(=O)O[C@H]([C@H]3OC(=O)c5c-4c(O)c(O)c(O)c5[C@@H]3C3(O)OC[C@H](O)[C@@H](O)[C@H]3O)[C@@H]2OC(=O)c2cc(O)c(O)c(O)c2-c2c1cc(O)c(O)c2O` (stereo partly specified) [GRANDININ], for which the EC50 in test [1] is 0.1 mg/L; in the test with HCT-8, above 10 mg/L; in the test on TE-671, above 10 mg/L; in the test with A549 it was above 10 mg/L; in the test with KB, above 10 mg/L.
`O=C(O[C@@H]1O[C@@H]2COC(=O)c3cc(O)c(O)c(O)c3-c3c(cc(Oc4c(C(=O)O)cc(O)c(O)c4O)c(O)c3O)C(=O)O[C@H]([C@H]1O)[C@@H]2O)c1cc(O)c(O)c(O)c1` [MALLOTINIC ACID]: the EC50 (in test [1]; in the test with HCT-8; with TE-671; in the test on A549; with KB) was above 10 mg/L each time.
On to `O=C(O[C@@H]1O[C@@H]2COC(=O)c3cc(O)c(O)c(O)c3-c3c(cc(O)c(O)c3O)C(=O)O[C@H]([C@H]1OC(=O)c1cc(O)c(O)c(O)c1)[C@@H]2OC(=O)c1cc(O)c(O)c(O)c1)c1cc(O)c(O)c(O)c1` [PUNICAFOLIN], for which the EC50 (in test [1]; in the test on HCT-8; in the test on TE-671; with A549; in the test with KB) was above 10 mg/L each time.
Consider `Oc1cc(O)c2c(c1)O[C@@]1(c3ccc(O)c(O)c3)Oc3cc(O)c4c(c3[C@@H]2[C@H]1O)O[C@H](c1ccc(O)c(O)c1)[C@H](O)C4` [PROANTHOCYANIDIN A2], for which the EC50 is 5.5 mg/L in test [1]; above 10 mg/L in the test with HCT-8; above 10 mg/L in the test on TE-671; above 10 mg/L in the test with A549; above 10 mg/L with KB.
As for `O=C1OCC2OC(=O)c3cc(O)c(O)c(O)c3-c3c(O)c(O)c(O)c4c3C(=O)OC(C2OC(=O)c2cc(O)c(O)c(O)c2-c2c1cc(O)c(O)c2O)C1OC(=O)c2c-4c(O)c(O)c(O)c2C1O` (stereo unspecified) [VESCALAGIN], the EC50 in test [1] was 0.58 mg/L; in the test with HCT-8, above 10 mg/L; in the test on TE-671 it was above 10 mg/L; in the test on A549, above 10 mg/L; in the test on KB, above 10 mg/L.
Consider `Oc1cc(O)c2c(c1)O[C@H](c1ccc(O)c(O)c1)[C@@H](O)C2` [CIANIDANOL], for which the EC50 (in test [1]; in the test on HCT-8; in the test with TE-671; in the test on A549; in the test on KB) was above 10 mg/L in each case.
With `O=C1OC[C@H]2OC(=O)c3cc(O)c(O)c(O)c3-c3c(O)c(O)c(O)c4c3C(=O)O[C@H]([C@H]3OC(=O)C5C4=C(O)C(=O)C54Oc5cc(O)c6c(c5[C@H]34)O[C@H](c3ccc(O)c(O)c3)[C@@H](O)C6)[C@@H]2OC(=O)c2cc(O)c(O)c(O)c2-c2c1cc(O)c(O)c2O` [MONGOLICAIN A], the EC50 (in test [1]; with HCT-8; in the test with TE-671; in the test on A549; in the test on KB) was above 10 mg/L in each case.
In the case of `O=C(O[C@@H]1C[C@](OC(=O)c2cc(O)c(O)c(O)c2)(C(=O)O)C[C@@H](OC(=O)c2cc(O)c(O)c(O)c2)[C@H]1OC(=O)c1cc(O)c(O)c(O)c1)c1cc(O)c(O)c(O)c1`, the EC50 in test [1] is 0.43 mg/L; in the test with HCT-8, above 10 mg/L; in the test with TE-671, above 10 mg/L; with A549, above 10 mg/L; with KB, above 10 mg/L.
In the case of `O=C1O[C@H]2[C@@H]3OC(=O)c4cc(Oc5c(C(=O)O)cc(O)c(O)c5O)c(O)c(O)c4-c4c(cc(O)c(O)c4O)C(=O)OC[C@H]2O[C@@H](OC(=O)c2cc(O)c(O)c(O)c2)[C@@H]3OC(=O)c2cc(O)c(O)c3c2[C@@H]2C1=CC(=O)[C@](O)(O3)C2(O)O` [MALLOTUSINIC ACID], the EC50 (in test [1]; with HCT-8; with TE-671; in the test on A549; with KB) was above 10 mg/L each time.
For the molecule `O=C(O)C[C@@H]1C(=O)O[C@H]2[C@@H]3OC(=O)c4cc(O)c(O)c(O)c4-c4c(cc(O)c(O)c4O)C(=O)OC[C@H]2O[C@@H](OC(=O)c2cc(O)c(O)c(O)c2)[C@@H]3OC(=O)c2cc(O)c(O)c3c2[C@H]1[C@H](O)C(=O)O3` [CHEBULAGIC ACID], the EC50 in test [1] was 0.8 mg/L; in the test on HCT-8, above 10 mg/L; with TE-671, above 10 mg/L; in the test on A549 it was above 10 mg/L; in the test with KB, above 10 mg/L.
Regarding `O=C(OC[C@H]1O[C@@H](OC(=O)c2cc(O)c(O)c(O)c2)[C@H](OC(=O)c2cc(O)c(O)c(O)c2)[C@@H](OC(=O)c2cc(O)c(O)c(O)c2)[C@@H]1O)c1cc(O)c(O)c(O)c1`, the EC50 (in test [1]; in the test with HCT-8; in the test with TE-671; with A549; in the test on KB) was above 10 mg/L each time.
As for `O=C1OC[C@H]2OC(O)[C@@H]3OC(=O)c4cc(O)c(O)c(O)c4-c4c(cc(O)c(O)c4O)C(=O)O[C@H]3[C@@H]2OC(=O)c2cc(O)c(O)c(O)c2-c2c1cc(O)c(O)c2O` (stereo partly specified) [PEDUNCULAGIN], the EC50 in test [1] was 2.74 mg/L; in the test with HCT-8 it was above 10 mg/L; with TE-671, above 10 mg/L; with A549 it was above 10 mg/L; in the test with KB, above 10 mg/L.
`O=C1O[C@H]2[C@H](OC(=O)c3cc(O)c(O)c(O)c3)[C@@H](OC(=O)c3cc(O)c(O)c4c3[C@@H]3C1=CC(=O)C(O)(O)C3(O)O4)[C@H](OC(=O)c1cc(O)c(O)c(O)c1)O[C@@H]2COC(=O)c1cc(O)c(O)c(O)c1` (stereo partly specified) [TERCHEBIN]: the EC50 (in test [1]; in the test with HCT-8; in the test with TE-671; in the test on A549; in the test with KB) was above 10 mg/L throughout.
For `O=C(OC[C@H]1O[C@@H](OC(=O)c2cc(O)c(O)c(O)c2)[C@H](O)[C@@H](O)[C@@H]1O)c1cc(O)c(O)c(O)c1`, the EC50 (in test [1]; with HCT-8; in the test on TE-671; in the test with A549; with KB) was above 10 mg/L throughout.
Turning to `O=C(OC[C@H]1O[C@@H](OC(=O)c2cc(O)c(O)c(O)c2)[C@H](O)[C@@H](O)[C@@H]1OC(=O)c1cc(O)c(O)c(O)c1)c1cc(O)c(O)c(O)c1`, the EC50 (in test [1]; with HCT-8; in the test with TE-671; with A549; in the test on KB) was above 10 mg/L in each case.
Consider `CC1(C)CC[C@]2(C(=O)O[C@@H]3O[C@H](CO)[C@@H](O)[C@H](O)[C@H]3O)CC[C@]3(C)C(=CC[C@@H]4[C@@]5(C)C[C@@H](O)[C@@H]6OC(=O)c7cc(O)c(O)c(O)c7-c7c(cc(O)c(O)c7O)C(=O)OC[C@@]6(CO)[C@@H]5CC[C@]43C)[C@@H]2C1` [CASTANOPSININ A], for which the EC50 (in test [1]; in the test with HCT-8; in the test on TE-671; in the test on A549; in the test on KB) was above 10 mg/L throughout.
For `O=C(OC[C@H]1OC(O)[C@@](O)(COC(=O)c2cc(O)c(O)c(O)c2)[C@@H]1O)c1cc(O)c(O)c(O)c1` (stereo partly specified) [HAMAMELITANNIN], the EC50 (in test [1]; with HCT-8; in the test with TE-671; with A549; in the test on KB) was above 10 mg/L in each case.
With `O=C1OC[C@H]2OC(=O)c3cc(O)c(O)c(O)c3-c3c(O)c(O)c(O)c4c3C(=O)O[C@H]([C@H]3OC(=O)c5c-4c(O)c(O)c(O)c5[C@H]3O)[C@@H]2OC(=O)c2cc(O)c(O)c(O)c2-c2c1cc(O)c(O)c2O` [CASTALAGIN], the EC50 is 0.79 mg/L in test [1]; above 10 mg/L with HCT-8; above 10 mg/L with TE-671; above 10 mg/L in the test on A549; above 10 mg/L with KB.
With `O=C(O)C1=C[C@@H](O)[C@@H](O)[C@H](OC(=O)c2cc(O)c(O)c(OC(=O)c3cc(O)c(O)c(O)c3)c2)C1`, the EC50 (in test [1]; in the test with HCT-8; in the test with TE-671; in the test with A549; with KB) was above 10 mg/L each time.
With `O=C(OC[C@H]1O[C@@H](O)[C@H](OC(=O)c2cc(O)c(O)c(O)c2)[C@@H](OC(=O)c2cc(O)c(O)c(O)c2)[C@@H]1OC(=O)c1cc(O)c(O)c(O)c1)c1cc(O)c(O)c(O)c1`, the EC50 (in test [1]; in the test with HCT-8; with TE-671; with A549; with KB) was above 10 mg/L throughout.
For `Cc1c2oc3c(C)ccc(C(=O)N[C@@H]4C(=O)N[C@H](C(C)C)C(=O)N5CCC[C@H]5C(=O)N(C)CC(=O)N(C)[C@@H](C(C)C)C(=O)O[C@@H]4C)c3nc-2c(C(=O)N[C@@H]2C(=O)N[C@H](C(C)C)C(=O)N3CCC[C@H]3C(=O)N(C)CC(=O)N(C)[C@@H](C(C)C)C(=O)O[C@@H]2C)c(N)c1=O` [DACTINOMYCIN] (I: T[dV]P[Sar][NMeV] / II: T[dV]P[Sar][NMeV]; ester I:1-I:C, II:1-II:C; linker I:N-II:N via Actinocin(1to9)), the EC50 in test [1] is below 0.01 mg/L.

(Values after ChEMBL document CHEMBL1150212, “Antitumor agents, 129. Tannins and related compounds as selective cytotoxic agents” (1992).)
